# Data reported in PubChem BioAssay (NCI).
#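 Grown in 96-well plates, cells were treated for 48 hours with each compound at five concentrations. Insufficient inhibition: endpoint recorded as highest concentration tested. GI50: concentration for 50% inhibition of growth. TGI denotes the concentration required for complete inhibition of growth.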
# Key:
# Test in all cases: NCI tumour cell line growth inhibition, 48 h
# [1] = test system: U251 CNS
# [2] = test system: MCF7 breast
# [3] = test system: TK-10 renal
# [4] = test system: HT29 colon
# [5] = test system: RXF 393 renal
# [6] = test system: IGROV1 ovarian
# [7] = test system: M14 melanoma
# [8] = test system: OVCAR-4 ovarian
# [9] = test system: MDA-MB-231 breast
# [10] = test system: UO-31 renal
# [11] = test system: OVCAR-3 ovarian
# [12] = test system: DU-145 prostate
# [13] = test system: COLO 205 colon
# [14] = test system: OVCAR-5 ovarian
# [15] = test system: SK-MEL-5 melanoma
# [16] = test system: SF-539 CNS
# [17] = test system: SW-620 colon
# [18] = test system: SK-OV-3 ovarian
# [19] = test system: UACC-257 melanoma
# [20] = test system: MDA-MB-468 breast
# [21] = test system: RPMI-8226 leukemia
# [22] = test system: NCI/ADR-RES ovarian
# [23] = test system: KM12 colon
# [24] = test system: MALME-3M melanoma
# [25] = test system: HCT-116 colon
# [26] = test system: NCI-H460 lung
# [27] = test system: 786-0 renal
# [28] = test system: NCI-H226 lung
# [29] = test system: SK-MEL-2 melanoma
# [30] = test system: NCI-H23 lung
# [31] = test system: SNB-75 CNS
# [32] = test system: SF-295 CNS
# [33] = test system: OVCAR-8 ovarian
# [34] = test system: MDA-MB-435
# [35] = test system: UACC-62 melanoma
# [36] = test system: A498 renal
# [37] = test system: A549 NSCLC
# [38] = test system: SNB-19 CNS
# [39] = test system: SN12C renal
# [40] = test system: BT-549 breast
# [41] = test system: SR leukemia
# [42] = test system: EKVX NSCLC
# [43] = test system: K-562 leukemia
# [44] = test system: HCT-15 colon
# [45] = test system: CAKI-1 renal
# [46] = test system: HL-60(TB) leukemia
# [47] = test system: CCRF-CEM leukemia
# [48] = test system: HCC-2998 colon
# [49] = test system: PC-3 prostate
# [50] = test system: MOLT-4 leukemia
# [51] = test system: LOX IMVI melanoma
# [52] = test system: HOP-62 NSCLC
# [53] = test system: HS 578T breast
# [54] = test system: ACHN renal
# [55] = test system: T-47D breast
# [56] = test system: HOP-92 NSCLC
# [57] = test system: NCI-H522 lung
# [58] = test system: SF-268 CNS
# [59] = test system: SK-MEL-28 melanoma
compound,measurement,setting,value
COc1cc2nc(SCc3ccccc3)n(-c3ccc(Cl)cc3)c(=O)c2cc1OC,GI50,[1],8.14 µM
same,TGI,[1],31.8 µM
same,GI50,[2],14.5 µM
same,TGI,[2],> 100 µM
same,GI50,[3],20.3 µM
same,TGI,[3],44.9 µM
same,GI50,[4],40.4 µM
same,TGI,[4],> 100 µM
same,GI50,[5],4.99 µM
same,TGI,[5],27.8 µM
same,GI50,[6],20.8 µM
same,TGI,[6],80.4 µM
same,GI50,[7],42.7 µM
same,TGI,[7],> 100 µM
same,GI50,[8],3.54 µM
same,TGI,[8],16.9 µM
same,GI50,[9],16.7 µM
same,TGI,[9],79.1 µM
same,GI50,[10],13.9 µM
same,TGI,[10],51.7 µM
same,GI50,[11],15.8 µM
same,TGI,[11],44.5 µM
same,GI50,[12],22.3 µM
same,TGI,[12],98.1 µM
same,GI50,[13],29.4 µM
same,TGI,[13],> 100 µM
same,GI50,[14],31 µM
same,TGI,[14],> 100 µM
same,GI50,[15],47.9 µM
same,TGI,[15],> 100 µM
same,GI50,[16],7.07 µM
same,TGI,[16],20.1 µM
same,GI50,[17],20.1 µM
same,TGI,[17],> 100 µM
same,GI50,[18],16.6 µM
same,TGI,[18],53 µM
same,GI50,[19],39.2 µM
same,TGI,[19],> 100 µM
same,GI50,[20],7.61 µM
same,TGI,[20],45.6 µM
same,GI50,[21],66.1 µM
same,TGI,[21],> 100 µM
same,GI50,[22],6.25 µM
same,TGI,[22],22.7 µM
same,GI50,[23],> 100 µM
same,TGI,[23],> 100 µM
same,GI50,[24],19.1 µM
same,TGI,[24],68.5 µM
same,GI50,[25],5.09 µM
same,TGI,[25],23.4 µM
same,GI50,[26],8.29 µM
same,TGI,[26],33.2 µM
same,GI50,[27],3.84 µM
same,TGI,[27],15.6 µM
same,GI50,[28],3.55 µM
same,TGI,[28],22.7 µM
same,GI50,[29],36.8 µM
same,TGI,[29],> 100 µM
same,GI50,[30],11.2 µM
same,TGI,[30],30.7 µM
same,GI50,[31],2.27 µM
same,TGI,[31],7.86 µM
same,GI50,[32],4.36 µM
same,TGI,[32],17.8 µM
same,GI50,[33],17.5 µM
same,TGI,[33],66.6 µM
same,GI50,[34],64.1 µM
same,TGI,[34],> 100 µM
same,GI50,[35],42.8 µM
same,TGI,[35],> 100 µM
same,GI50,[36],19.6 µM
same,TGI,[36],45.2 µM
same,GI50,[37],8.69 µM
same,TGI,[37],29.6 µM
same,GI50,[38],12.6 µM
same,TGI,[38],36 µM
same,GI50,[39],11.5 µM
same,TGI,[39],75.8 µM
same,GI50,[40],22 µM
same,TGI,[40],82.4 µM
same,GI50,[41],16.5 µM
same,TGI,[41],> 100 µM
same,GI50,[42],16.6 µM
same,TGI,[42],50.5 µM
same,GI50,[43],12 µM
same,TGI,[43],35.6 µM
same,GI50,[44],19 µM
same,TGI,[44],> 100 µM
same,GI50,[45],3.34 µM
same,TGI,[45],13.7 µM
same,GI50,[46],> 100 µM
same,TGI,[46],> 100 µM
same,GI50,[47],38.1 µM
same,TGI,[47],> 100 µM
same,GI50,[48],22.5 µM
same,TGI,[48],> 100 µM
same,GI50,[49],16.1 µM
same,TGI,[49],> 100 µM
same,GI50,[50],25.2 µM
same,TGI,[50],> 100 µM
same,GI50,[51],5.77 µM
same,TGI,[51],18.9 µM
same,GI50,[52],4.65 µM
same,TGI,[52],18.4 µM
same,GI50,[53],6.63 µM
same,TGI,[53],48.6 µM
same,GI50,[54],4.69 µM
same,TGI,[54],19 µM
same,GI50,[55],28.1 µM
same,TGI,[55],> 100 µM
same,GI50,[56],16.1 µM
same,TGI,[56],49 µM
same,GI50,[57],18.9 µM
same,TGI,[57],88.2 µM
same,GI50,[58],10.3 µM
same,TGI,[58],44.4 µM
same,GI50,[59],21.8 µM
same,TGI,[59],> 100 µM
O=C(O)CCN1C(=O)/C(=C/C=C/c2ccc([N+](=O)[O-])o2)SC1=S,GI50,[1],0.849 µM
same,GI50,[2],0.401 µM
same,GI50,[3],1.81 µM
same,TGI,[3],3.35 µM
same,GI50,[6],1.58 µM
same,GI50,[9],1.27 µM
same,TGI,[9],2.58 µM
same,GI50,[10],1.26 µM
same,TGI,[10],2.53 µM
same,GI50,[11],1.17 µM
same,TGI,[11],2.57 µM
same,GI50,[12],3.33 µM
same,TGI,[12],12.2 µM
same,GI50,[14],1.8 µM
same,TGI,[14],3.34 µM
same,GI50,[15],1.38 µM
same,TGI,[15],2.68 µM
same,GI50,[16],1.09 µM
same,TGI,[16],2.3 µM
same,GI50,[17],1.26 µM
same,TGI,[17],2.81 µM
same,GI50,[18],3.98 µM
same,TGI,[19],3.55 µM
same,GI50,[20],1.13 µM
same,TGI,[20],2.49 µM
same,GI50,[22],2.01 µM
same,TGI,[22],10.1 µM
same,TGI,[23],2.71 µM
same,GI50,[24],0.748 µM
same,TGI,[24],2.12 µM
same,GI50,[25],0.386 µM
same,TGI,[25],1.66 µM
same,GI50,[27],1.63 µM
same,GI50,[28],1.4 µM
same,GI50,[29],1.16 µM
same,TGI,[30],3.08 µM
same,GI50,[31],1.57 µM
same,TGI,[31],10.7 µM
same,GI50,[32],1.68 µM
same,TGI,[32],3.24 µM
same,GI50,[34],1.53 µM
same,TGI,[34],3.17 µM
same,GI50,[36],20 µM
same,TGI,[36],34.3 µM
same,TGI,[37],13.5 µM
same,GI50,[38],2.09 µM
same,GI50,[40],1.13 µM
same,TGI,[40],2.38 µM
same,GI50,[42],1.41 µM
same,GI50,[43],0.378 µM
same,TGI,[43],6.07 µM
same,GI50,[44],0.43 µM
same,GI50,[45],1.77 µM
same,TGI,[45],3.17 µM
same,GI50,[48],1.65 µM
same,TGI,[48],3.06 µM
same,GI50,[49],1.93 µM
same,TGI,[49],6.09 µM
same,GI50,[51],0.508 µM
same,GI50,[52],1.86 µM
same,TGI,[52],3.92 µM
same,GI50,[53],1.65 µM
same,TGI,[53],6.71 µM
same,GI50,[55],1.41 µM
same,TGI,[55],4.17 µM
same,GI50,[57],0.379 µM
same,TGI,[57],1.46 µM
same,GI50,[58],1.68 µM
same,TGI,[58],3.95 µM
CCN1CCN(C(=O)[C@]23CC[C@@H](C)[C@H](C)[C@@H]2C2=CC[C@@H]4[C@@]5(C)C/C(=C/c6ccncc6)C(=O)C(C)(C)[C@@H]5CC[C@@]4(C)[C@]2(C)CC3)CC1,GI50,[20],1.63 µM
same,TGI,[20],3.38 µM
O=c1ccn(C2OC(CO)C(O)C2F)c(=O)[nH]1 (stereo unspecified),GI50,[20],> 1000 µM
same,TGI,[20],> 1000 µM
